# Columns and labels:
# Assay type in all cases: cell-based
# [1] = target: T1, Orexin/Hypocretin receptor type 1 (Homo sapiens, UniProt O43613); assay: Displacement of […]5IBOM from OX1R (unknown origin) transfected in CHO cells assessed as inhibition constant incubated for 1.5 hrs by automated gamma-counter analysis
# T1 sequence (O43613 whole entry): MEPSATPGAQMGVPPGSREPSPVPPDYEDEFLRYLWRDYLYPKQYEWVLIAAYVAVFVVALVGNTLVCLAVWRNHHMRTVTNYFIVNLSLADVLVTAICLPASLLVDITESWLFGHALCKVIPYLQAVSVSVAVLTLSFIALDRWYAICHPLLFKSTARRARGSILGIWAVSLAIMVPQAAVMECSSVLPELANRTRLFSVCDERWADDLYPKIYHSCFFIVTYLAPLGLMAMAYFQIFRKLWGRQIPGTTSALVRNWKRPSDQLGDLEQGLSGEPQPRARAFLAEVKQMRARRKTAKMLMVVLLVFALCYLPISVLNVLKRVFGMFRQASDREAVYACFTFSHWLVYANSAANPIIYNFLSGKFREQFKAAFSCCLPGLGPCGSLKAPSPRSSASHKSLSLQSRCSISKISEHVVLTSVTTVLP
# [2] = Selectivity ratio of Ki for OX2R (unknown origin) transfected in CHO cells to Ki for OX1R (unknown origin) transfected in CHO cells
# Orexin receptor type 2 = target: T2, Orexin receptor type 2 (Homo sapiens, UniProt O43614); assay: Displacement of […]5IBOM from OX2R (unknown origin) transfected in CHO cells assessed as inhibition constant incubated for 1.5 hrs by automated gamma-counter analysis
# T2 sequence (O43614 whole entry): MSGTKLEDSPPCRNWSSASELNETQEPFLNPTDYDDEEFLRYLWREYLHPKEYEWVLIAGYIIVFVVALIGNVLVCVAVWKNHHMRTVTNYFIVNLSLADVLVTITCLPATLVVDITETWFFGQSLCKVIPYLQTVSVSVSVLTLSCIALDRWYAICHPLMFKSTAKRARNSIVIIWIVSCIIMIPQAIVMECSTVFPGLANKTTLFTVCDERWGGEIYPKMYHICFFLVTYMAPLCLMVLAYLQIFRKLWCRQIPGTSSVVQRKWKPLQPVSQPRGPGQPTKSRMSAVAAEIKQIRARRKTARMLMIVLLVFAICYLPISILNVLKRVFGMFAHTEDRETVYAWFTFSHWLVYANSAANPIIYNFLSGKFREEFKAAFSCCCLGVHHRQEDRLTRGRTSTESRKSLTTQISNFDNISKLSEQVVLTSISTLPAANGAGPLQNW
SMILES,Ki [1] [nM],Ki (Orexin receptor type 2) [nM],Ratio Ki [2]
C[C@H]1CN(c2nc3ccc(F)cc3s2)CCCN1C(=O)c1cc(C(F)(F)F)ccc1-n1nccn1,6.67,19,2.85
C[C@H]1CN(c2nc3ccc(F)cc3s2)CCCN1C(=O)c1ccccc1-n1nccn1,0.64,5.17,8.08
Cc1ccc(-n2nccn2)c(C(=O)N2CCCN(c3nc4ccc(F)cc4s3)C[C@@H]2C)c1,2.14,20.6,9.63

# Further molecules by falling Ki [1], results first:
Ki [1] [nM],Ki (Orexin receptor type 2) [nM],SMILES,Ratio Ki [2]
2.35,8.64,Cc1ccc(-n2nccn2)c(C(=O)N2CCCN(c3nc4cc(F)ccc4o3)C[C@@H]2C)c1,3.68
2.33,62.8,C[C@H]1CN(c2nc3ccccc3s2)CCCN1C(=O)c1cc(F)ccc1-n1nccn1,26.9
1.14,12.8,Cc1ccc(-n2nccn2)c(C(=O)N2CCCN(c3nc4cc(F)ccc4s3)C[C@@H]2C)c1,11.3
